Assay results from patent US20240252463A1, “METHODS OF TREATING FIBROTIC PATHOLOGIES” (Mayo Foundation for Medical Education and Research, priority 2018, published 2024).

Experiments:
[1] = test system: TAZ4SA; experiment: Gene expression and ECM deposition in NIH-3T3 cells expressing constitutively active mutant TAZ (TAZ4SA); format: cell-based, mouse; conditions: doxycycline-induced TAZ4SA NIH-3T3
Procedure: FIGS. 8A-8B DHX inhibition of pro-fibrotic gene expression and matrix deposition requires inhibition of YAP/TAZ. […] TAZ4SA expression was induced with 100 ng/mL doxycycline for 72 hours prior to treatment with 10 μM or the indicated concentration of dihydrexidine. For gene expression experiments efficacy of DHX in NIH-3T3 cells was validated with by DHX (10 μM) effect on TGFβ (24 hour, 2 ng/mL) induced gene expression. N=2 for all.
Cell culture: Cells were all maintained in EMEM (ATCC) containing 10% FBS, unless otherwise noted. IMR-90 embryonic lung fibroblasts and NIH-3T3 mouse fibroblasts were purchased from ATCC. Doxycycline-inducible Tet-On NIH3T3 expressing TAZ4SA or control empty vector were described previously. Normal Human Alveolar Epithelial Cells (NHAEpCs), Normal Human Microvascular Endothelial Cells (NHMVECs), Normal Human Lung Fibroblasts (NHLFs), and Human Dermal Fibroblasts (HDFs) were purchased from Lonza and were cultured in the proprietary media per Lonza's recommendation. Human Adult Cardiac Fibroblasts (HACFs) and Hepatic Stellate Cells (HSCs) were purchased from ScienCell and were cultured in the proprietary media per ScienCell's recommendation. Hepatocytes were purchased from Samsara and were cultured in the proprietary media per Samsara's recommendation. […]

[2] = test system: IPF patient derived fibroblasts; experiment: Traction Force Microscopy of IPF patient derived fibroblasts; format: cell-based, human; conditions: IPF fibroblasts on 6.4 kPa matrices
Procedure: Traction Force Microscopy: Traction analysis was conducted as previously described. Briefly, polyacrylamide substrates with shear moduli of 6.4 kPa were prepared, and fluorescent sulfate-modified latex microspheres (0.2 μm, 505/515 ex/em) (FluoSpheres, Life Technologies) were conjugated to the gel surfaces after treatment with 1 mg ml^−1 of dopamine hydrochloride (Sigma-Aldrich) in 50 mM HEPES solution (pH 8.5). IPF patient derived fibroblasts were plated on the gels overnight and treated as indicated before traction force measurements. Images of gel surface-conjugated fluorescent beads were acquired for each cell before and after trypsinization using a Nikon ECLIPSE Ti microscope at ×10 magnification. Traction forces were estimated by measuring bead displacement fields and computing corresponding traction fields using TractionsForAll (freely distributed program that calculates 2-D tractions exerted by an adherent cell on its substrate).

[3] = test system: YAP/TAZ; experiment: YAP/TAZ localization in pulmonary epithelial (NHAEpC) and endothelial (NHMVEC) cells; format: cell-based, human; conditions: FIG. 2b
Procedure: Scale bar represents 100 μm. […] Scale bar represents 100 μm.
ImmunofluorescenceMicroscopy: Cells were plated into 96 well plates (Corning 3603) in their specific growth media and allowed to attach (8 hours). Media was then exchanged for the indicated conditions for each experiment. Cells were fixed in 3.7% formalin (Sigma-Aldrich), permeabilized in 0.25% Triton X-100 (Sigma-Aldrich) and then blocked with 1% BSA for 1 h. Cells or tissue sections were incubated overnight with mouse monoclonal antibody against αSMA (Sigma-Aldrich F3777), and/or a rabbit monoclonal antibody against YAP/TAZ (Cell Signaling D24E4) diluted 1:200 in PBS with 1% BSA. Cells were then washed and exposed to flourescence-conjugated secondary antibodies (Invitrogen) diluted 1:1000 and DAPI (Thermo Fisher Scientific). Images were taken with a Cytation5 (BioTek) microscope. For scoring αSMA positive cells (FIG. 3b), an observer blinded to the treatment conditions counted αSMA-positive cells using a visual threshold for bright fibrous staining; a minimum of 200 cells was counted for each condition. YAP/TAZ localization was quantified (FIG. 2, 6, 8) using Gen5 (Biotek) software. […] Quantification of double positive (YAP/TAZ and αSMA) cells from lung tissue sections (FIG. 4d) was performed similarly; however separate thresholds were established for both YAP/TAZ and αSMA. A minimum of 4000 cells was quantified for each mouse.

Oc1cc2c(cc1O)[C@H]1c3ccccc3CN[C@@H]1CC2 (racemic) [Dihydrexidine, dihydrexidine]
profibrotic gene expression and extracellular matrix accumulation in TAZ4SA cells [1]: had no effect on profibrotic gene expression or extracellular matrix accumulation | contractile forces (traction force microscopy) [2]: significantly and dose-dependently reduced the contractile forces | YAP/TAZ localization in pulmonary epithelial and endothelial cells [3]: had no effect on YAP/TAZ localization
